Tests used:
[1] = tested on: Nc1nc2c(ncn2[C@@H]2O[C@H](COP(=O)(O)OP(=O)(O)OP(=O)(O)O)[C@@H](O)[C@H]2O)c(=O)[nH]1; assay: purified protein; conditions: 20 ng/μL poly(C), 2.5 mM MnCl2, 5 mM DTT, pH 7.5, 30 °C, Michaelis-Menten fit
[2] = tested on: RCV RdRp; assay: PicoGreen dsRNA assay, substrate inhibition model; format: biochemical, Rabbit calicivirus Australia 1 (Lagovirus europaeus GI.4); conditions: substrate inhibition constant; rGTP 0–2.0 mM, 20 ng/μL poly(C), 2.5 mM MnCl2, pH 7.5, 30 °C
[3] = tested on: NoV RdRp; assay: PicoGreen dsRNA assay, substrate inhibition model; format: biochemical, Norovirus GII.4 (Norwalk virus, Norovirus norwalkense); conditions: substrate inhibition constant; rGTP 0–2.0 mM, 20 ng/μL poly(C), 2.5 mM MnCl2, pH 7.5, 30 °C
[4] = tested on: NoV RdRp; assay: PicoGreen dsRNA assay, Michaelis-Menten model; format: biochemical, Norovirus GII.4 (Norwalk virus, Norovirus norwalkense); conditions: 20 ng/μL poly(C), 2.5 mM MnCl2, 5 mM DTT, pH 7.5, 30 °C; Michaelis-Menten fit
[5] = target: T1, RHDV RdRp (Rabbit hemorrhagic disease virus-V351, UniProt P27411); assay: PicoGreen dsRNA assay, substrate inhibition model; format: biochemical; conditions: substrate inhibition constant; rGTP 0–2.0 mM, 20 ng/μL poly(C), 2.5 mM MnCl2, pH 7.5, 30 °C
T1 construct: gene ORF1

[6] = tested on: RCV RdRp; assay: PicoGreen dsRNA assay, Michaelis-Menten model; format: biochemical, Rabbit calicivirus Australia 1 (Lagovirus europaeus GI.4); conditions: 20 ng/μL poly(C), 2.5 mM MnCl2, 5 mM DTT, pH 7.5, 30 °C; Michaelis-Menten fit
[7] = target: RCV RdRp; assay: PicoGreen dsRNA de novo polymerase assay; format: biochemical, Rabbit calicivirus Australia 1 (Lagovirus europaeus GI.4); conditions: 45 μM rGTP, 10 ng/μL poly(C), 2.5 mM MnCl2, pH 7.5, 30 °C, 10 min preincubation; non-nucleoside inhibitor
[8] = target: T1, RHDV RdRp; assay: PicoGreen dsRNA de novo polymerase assay; format: biochemical

T1 sequence (P27411 1252-1767): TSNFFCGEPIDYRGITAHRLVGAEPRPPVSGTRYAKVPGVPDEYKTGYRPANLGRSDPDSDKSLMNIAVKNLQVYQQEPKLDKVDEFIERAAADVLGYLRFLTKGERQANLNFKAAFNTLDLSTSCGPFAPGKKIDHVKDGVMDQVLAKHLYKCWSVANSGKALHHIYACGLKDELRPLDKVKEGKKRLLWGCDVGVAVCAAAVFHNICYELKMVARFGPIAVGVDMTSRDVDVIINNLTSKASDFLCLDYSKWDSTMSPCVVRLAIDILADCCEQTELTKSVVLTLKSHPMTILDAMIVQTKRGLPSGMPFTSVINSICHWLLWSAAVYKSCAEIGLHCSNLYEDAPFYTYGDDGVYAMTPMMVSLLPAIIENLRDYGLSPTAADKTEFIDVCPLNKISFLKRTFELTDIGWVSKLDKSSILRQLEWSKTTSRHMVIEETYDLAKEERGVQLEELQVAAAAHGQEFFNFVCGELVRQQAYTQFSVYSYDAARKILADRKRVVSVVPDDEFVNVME

Compound: RHDV RdRp (Rabbit hemorrhagic disease virus-V351)
- Km [1]: 14.6 ± 2.4 µM

Compound: Nc1nc2c(ncn2[C@@H]2O[C@H](COP(=O)(O)OP(=O)(O)OP(=O)(O)O)[C@@H](O)[C@H]2O)c(=O)[nH]1 [rGTP]
- RCV RdRp [2]: 1.7 ± 0.2 mM
- NoV RdRp [3]: 0.6 ± 0.2 mM
- Km [4]: 77.7 ± 14.5 µM
- RHDV RdRp [5]: 2.1 ± 0.4 mM
- Km [6]: 5.7 ± 0.7 µM

Compound: Cc1nc(-c2ccccc2)sc1C(=O)Nc1sc2c(c1C#N)CCC2 [NIC02]
- IC50 [7]: 13.5 µM
- IC50 [8]: 19.9 µM

— paper PMC4848594 (Viruses, 2016)
